{"source": "patent US20230027066A1", "about": "(Urovant Sciences GmbH, priority 2019, published 2023)", "key": {"[1]": {"conditions": "tolterodine ER 4 mg", "from_the_text": "A placebo group was included in the main study, and a group that received tolterodine monotherapy was included in the main study and in the extension."}, "[2]": {"assay": "40-week extension study (52 weeks), adverse events", "from_the_text": "Approximately 500 men and women with overactive bladder who completed 12 weeks in the parent study were permitted to enroll, at approximately 110 study sites in the U.S.\nSecondary endpoints were evaluation of CFB at Week 52 in average number of micturitions, Urge Urinary Incontinence (UUI) episodes, urgency episodes, and total urinary incontinence episodes. All CFB calculations used the parent study Baseline value."}}, "data": [{"smiles": "Cc1ccc(O)c([C@H](CCN(C(C)C)C(C)C)c2ccccc2)c1", "note": "[Tolterodine ER, tolterodine, reference compound]", "values": [{"measurement": "Sinusitis", "setting": "[1]", "result": "1 (0.4) n (%)"}, {"measurement": "Subjects with ≥1 AE", "setting": "[1]", "result": "116 (45.1) n (%)"}, {"measurement": "Urinary tract infection", "setting": "[1]", "result": "12 (4.7) n (%)"}, {"measurement": "Discontinued the study: Death", "setting": "[2]; 40-Weeks arm", "result": "0 n (%)"}, {"measurement": "Discontinued the study: Death", "setting": "[2]; 52-Weeks arm", "result": "0 n (%)"}, {"measurement": "SAEs resulting in death (not considered related by Investigator or Sponsor)", "setting": "[2]; Overall groups", "result": "0 n (%)"}, {"measurement": "Discontinued the study: Death", "setting": "[2]; Overall groups, Randomized Set Extension", "result": "0 n (%)"}, {"measurement": "Discontinued the study: Adverse Event", "setting": "[2]; both, human, in vivo", "result": "8 (3.4) n (%)"}, {"measurement": "Patients with at least one treatment-emergent adverse event", "setting": "[2]; both, human, in vivo", "result": "126 (54.3) n (%)"}, {"measurement": "Patients with at least one treatment-emergent serious AE", "setting": "[2]; both, human, in vivo", "result": "10 (4.3) n (%)"}, {"measurement": "SAEs considered treatment-related by the investigator", "setting": "[2]; both, human, in vivo", "result": "2 (0.9) n (%)"}, {"measurement": "SAEs: Hospitalization", "setting": "[2]; both, human, in vivo", "result": "9 (3.9) n (%)"}, {"measurement": "SAEs: Other serious criteria", "setting": "[2]; both, human, in vivo", "result": "2 (0.9) n (%)"}, {"measurement": "Discontinued the study: Adverse Event", "setting": "[2]; both, human, in vivo, 40 weeks", "result": "4 (4.4) n (%)"}, {"measurement": "AE leading to discontinuation of study drug: Acute prerenal failure", "setting": "[2]; both, human, in vivo, 52 weeks", "result": "1 (0.4) n (%)"}, {"measurement": "AE leading to discontinuation of study drug: Amnesia", "setting": "[2]; both, human, in vivo, 52 weeks", "result": "0 n (%)"}, {"measurement": "AE leading to discontinuation of study drug: Any", "setting": "[2]; both, human, in vivo, 52 weeks", "result": "8 (3.4) n (%)"}, {"measurement": "AE leading to discontinuation of study drug: Aortic stenosis", "setting": "[2]; both, human, in vivo, 52 weeks", "result": "1 (0.4) n (%)"}, {"measurement": "AE leading to discontinuation of study drug: Atrial fibrillation", "setting": "[2]; both, human, in vivo, 52 weeks", "result": "1 (0.4) n (%)"}, {"measurement": "AE leading to discontinuation of study drug: Blood creatinine increased", "setting": "[2]; both, human, in vivo, 52 weeks", "result": "0 n (%)"}, {"measurement": "AE leading to discontinuation of study drug: Blood urea increased", "setting": "[2]; both, human, in vivo, 52 weeks", "result": "0 n (%)"}, {"measurement": "AE leading to discontinuation of study drug: Cardiac failure", "setting": "[2]; both, human, in vivo, 52 weeks", "result": "1 (0.4) n (%)"}, {"measurement": "AE leading to discontinuation of study drug: Cardiomyopathy", "setting": "[2]; both, human, in vivo, 52 weeks", "result": "1 (0.4) n (%)"}, {"measurement": "AE leading to discontinuation of study drug: Chronic kidney disease", "setting": "[2]; both, human, in vivo, 52 weeks", "result": "1 (0.4) n (%)"}, {"measurement": "AE leading to discontinuation of study drug: Constipation", "setting": "[2]; both, human, in vivo, 52 weeks", "result": "0 n (%)"}, {"measurement": "AE leading to discontinuation of study drug: Diarrhea", "setting": "[2]; both, human, in vivo, 52 weeks", "result": "0 n (%)"}, {"measurement": "AE leading to discontinuation of study drug: Dizziness", "setting": "[2]; both, human, in vivo, 52 weeks", "result": "1 (0.4) n (%)"}, {"measurement": "AE leading to discontinuation of study drug: Dry eye", "setting": "[2]; both, human, in vivo, 52 weeks", "result": "1 (0.4) n (%)"}, {"measurement": "AE leading to discontinuation of study drug: Dyspnoea", "setting": "[2]; both, human, in vivo, 52 weeks", "result": "1 (0.4) n (%)"}, {"measurement": "AE leading to discontinuation of study drug: Haematuria", "setting": "[2]; both, human, in vivo, 52 weeks", "result": "1 (0.4) n (%)"}, {"measurement": "AE leading to discontinuation of study drug: Headache", "setting": "[2]; both, human, in vivo, 52 weeks", "result": "1 (0.4) n (%)"}, {"measurement": "AE leading to discontinuation of study drug: Intervertebral disc degeneration", "setting": "[2]; both, human, in vivo, 52 weeks", "result": "1 (0.4) n (%)"}, {"measurement": "AE leading to discontinuation of study drug: Mitral valve incompetence", "setting": "[2]; both, human, in vivo, 52 weeks", "result": "1 (0.4) n (%)"}, {"measurement": "AE leading to discontinuation of study drug: Osteoarthritis", "setting": "[2]; both, human, in vivo, 52 weeks", "result": "1 (0.4) n (%)"}, {"measurement": "AE leading to discontinuation of study drug: Pulmonary embolism", "setting": "[2]; both, human, in vivo, 52 weeks", "result": "1 (0.4) n (%)"}, {"measurement": "AE leading to discontinuation of study drug: Sinus tachycardia", "setting": "[2]; both, human, in vivo, 52 weeks", "result": "1 (0.4) n (%)"}, {"measurement": "AE leading to discontinuation of study drug: Tricuspid valve incompetence", "setting": "[2]; both, human, in vivo, 52 weeks", "result": "1 (0.4) n (%)"}, {"measurement": "AE: Anaemia", "setting": "[2]; both, human, in vivo, 52 weeks", "result": "2 (0.9) n (%)"}, {"measurement": "AE: Atrial fibrillation", "setting": "[2]; both, human, in vivo, 52 weeks", "result": "1 (0.4) n (%)"}, {"measurement": "AE: Back pain", "setting": "[2]; both, human, in vivo, 52 weeks", "result": "3 (1.3) n (%)"}, {"measurement": "AE: Blood pressure increased", "setting": "[2]; both, human, in vivo, 52 weeks", "result": "4 (1.7) n (%)"}, {"measurement": "AE: Bronchitis", "setting": "[2]; both, human, in vivo, 52 weeks", "result": "3 (1.3) n (%)"}, {"measurement": "AE: Constipation", "setting": "[2]; both, human, in vivo, 52 weeks", "result": "6 (2.6) n (%)"}, {"measurement": "AE: Diarrhea", "setting": "[2]; both, human, in vivo, 52 weeks", "result": "4 (1.7) n (%)"}, {"measurement": "AE: Dizziness", "setting": "[2]; both, human, in vivo, 52 weeks", "result": "2 (0.9) n (%)"}, {"measurement": "AE: Dry mouth", "setting": "[2]; both, human, in vivo, 52 weeks", "result": "12 (5.2) n (%)"}, {"measurement": "AE: Fatigue", "setting": "[2]; both, human, in vivo, 52 weeks", "result": "0 n (%)"}, {"measurement": "AE: Headache", "setting": "[2]; both, human, in vivo, 52 weeks", "result": "9 (3.9) n (%)"}, {"measurement": "AE: Hyperglycemia", "setting": "[2]; both, human, in vivo, 52 weeks", "result": "2 (0.9) n (%)"}, {"measurement": "AE: Hypertension", "setting": "[2]; both, human, in vivo, 52 weeks", "result": "20 (8.6) n (%)"}, {"measurement": "AE: Hypotension", "setting": "[2]; both, human, in vivo, 52 weeks", "result": "0 n (%)"}, {"measurement": "AE: Musculoskeletal pain", "setting": "[2]; both, human, in vivo, 52 weeks", "result": "1 (0.4) n (%)"}, {"measurement": "AE: Nasopharyngitis", "setting": "[2]; both, human, in vivo, 52 weeks", "result": "12 (5.2) n (%)"}, {"measurement": "AE: Nausea", "setting": "[2]; both, human, in vivo, 52 weeks", "result": "7 (3.0) n (%)"}, {"measurement": "AE: Residual urine volume increased", "setting": "[2]; both, human, in vivo, 52 weeks", "result": "3 (1.3) n (%)"}, {"measurement": "AE: Syncope", "setting": "[2]; both, human, in vivo, 52 weeks", "result": "1 (0.4) n (%)"}, {"measurement": "AE: Tachycardia (Sinus Tachycardia)", "setting": "[2]; both, human, in vivo, 52 weeks", "result": "1 (0.4) n (%)"}, {"measurement": "AE: Upper respiratory tract infection", "setting": "[2]; both, human, in vivo, 52 weeks", "result": "1 (0.4) n (%)"}, {"measurement": "AE: Urinary retention", "setting": "[2]; both, human, in vivo, 52 weeks", "result": "1 (0.4) n (%)"}, {"measurement": "AE: Urinary tract infection", "setting": "[2]; both, human, in vivo, 52 weeks", "result": "17 (7.3) n (%)"}, {"measurement": "Discontinued the study: Adverse Event", "setting": "[2]; both, human, in vivo, 52 weeks", "result": "4 (2.8) n (%)"}]}]}
